The source of these data is paper PMC3226828 (Journal of medicinal chemistry, 2011).

Bounds are passed on as bounds.

In data set [1] the test system is 68 GPCRs, ion channels and transporters. Kind of data set: Ricerca Lead Profiling Screen. It counts as binding. Particulars: 10 µM; all 68 assays.
Data set [2] can be described thus: rat in vivo pharmacokinetics, IV and PO. Particulars: for CL / clearance: IV 1 mg/kg, hydrochloride, 10% EtOH, 80% PEG-400, 10% saline; for clearance: CL.
The test system of a further data set is mGlu1,2,3. Conditions: 10 point concentration-response prior to EC20 agonist.
For data set [3], the system named is haloperidol-induced catalepsy. Kind of data set: reversal of haloperidol-induced catalepsy. The class given is in vivo. Conditions: rat, p.o., haloperidol 0.75 mg/kg, 30 min, vs vehicle control.
Data set [4] in a line: IV cassette pharmacokinetics in beagle dog. Conditions: in vivo.
A short description of data set [5]: IV cassette pharmacokinetics in rhesus monkey. Particulars: in vivo.
For data set [6] the following is noted: disclosed mGlu4 PAMs; cited from earlier work.
For data set [7] the following is noted: previously reported tool compounds; cited from earlier work.
For data set [8] the following is noted: previously reported tool compounds; cited from earlier work. The source holds these as a separate data set.

The MRT is a mean duration of stay, worked out from the concentration-time curve. In general, half-life refers to the time needed for the level to fall by half in the phase considered. What is called AUC(0-t) is the area under the concentration-time curve up to a stated or last time point. For `O=C(Nc1ccc(N2C(=O)[C@@H]3[C@H](C2=O)[C@@H]2C=C[C@H]3C2)c(Cl)c1)c1ccccn1` [15f], the “inhibition of radioligand binding” value in [1] is given as at most 50%. The molecule further displayed a CL in data set [2] (1 mg/kg) of 36.9 mL/min/kg. In data set [2] (in vivo, iv, 1 mg/kg), the MRT was 8.22 h, the Vd was determined as 18 L/kg, the half-life was 0.673 h and the clearance was found to be 37 mL/min/kg. Also, the AUC(0-t) in [2] (in vivo, po, 10 mg/kg) was 4350 ng·h/mL. For the same molecule, the “activity at mGlu 1, 2, 3” value in the data set with mGlu1,2,3 is “inactive”. Besides, in data set [3], the “reversal of haloperidol-induced catalepsy” value is “produced a reversal of haloperidol-induced catalepsy”. In addition, the “reversal of haloperidol-induced catalepsy” value in [3] (listed as ML182) was “orally active”.

In [2] (1 mg/kg), `O=C(Nc1ccc(N2C(=O)CC3(CCCCC3)C2=O)c(Cl)c1)c1ccccn1` [15j, N-(3-Chloro-4-(1,3-dioxo-2-azaspiro[4.5]decan-2-yl)phenyl)picolinamide] yielded a CL of 48.3 mL/min/kg. In data set [2] (in vivo, iv, 1 mg/kg), the mean residence time MRT was 0.953 h and the clearance came out at 48 mL/min/kg.

Consider `O=C(Nc1ccc(N2C(=O)CC(c3ccccc3)C2=O)c(Cl)c1)c1ccccn1` (centres unmarked) [15k, N-(3-Chloro-4-(2,5-dioxo-3-phenylpyrrolidin-1-yl)phenyl)picolinamide], for which the clearance came to 7 mL/min/kg in [4]; 5.4 mL/min/kg in data set [2] (in vivo, iv, 1 mg/kg); 3 mL/min/kg in [5]. In data set [2] (in vivo, iv, 1 mg/kg), this molecule gave an MRT of 1.82 h.

Turning to `COc1cc(NC(=O)c2ccccn2)ccc1Cl` [compound 2], the “CNS penetration when dosed systemically” value in data set [6] is reported as “CNS penetrant”. Further, the “rat CLHEP” value in data set [7] was 65.5 mL/min/kg. Also, in data set [8], the “rPPB (%fu)” value is reported as 2.4 %fu.
